Results as given in patent publication US20190308035A1, “A NON-INVASIVE METHOD FOR SELECTIVE NEURAL STIMULATION BY ULTRASOUND” (priority 2018, published 2019).
Entries after “also recorded” stand apart in the source; their conditions may differ. Bridge positions count the residues as written; N and C are the ends. Ends that are not written are not given here.

Key:
[1] = system: CLU199 cells; experiment: qPCR array of cAMP/calcium signalling genes in CLU199 cells; type: cell-based, mouse; conditions: array of 84 genes, Yodal 1 μM, vs untreated control
Experimental: Ultrasonic effects in CLU199 cells were explored using a qPCR array that probes 84 genes known to have Ca2+ responsive elements of various kinds.
A qRT-PCR array that explores genes that regulate calcium-related signalling (RT2 Pathway Finder) was used to evaluate how ultrasound treatment affects cellular signalling. Cells were also either pre-treated with GsMTx-4 (10 μM) before ultrasound or treated with Yodal (1 μM) by way of comparison. Results of the PCR were uploaded to Qiagen/SABiosciences online suite for data analysis, and clustergrams were generated using this software. Information about various subgroups of genes described here (FIG. 2J) were obtained from the product literature.
CLU199 cells seeded in 35 mm dishes were treated with ultrasound, Yodal or GsMTx-4 as appropriate. Total RNA was collected as described in section 7, and the concentration measured on NanoDrop™ One (Thermo Fisher Scientific). Samples with 260/280>1.8 and 260/230>2.0 were run on a 1% agarose gel containing bleach to check for RNA integrity (2). […] Ct values were calculated using the Quantstudio™ software, exported into a spreadsheet and uploaded to SABiosciences' online array data analysis software (accessible at: http://pcrdataanalysis.sabiosciences.com/per/arrayanalysis.php). […] Resulting clustergrams and a spreadsheet containing the analyzed results were obtained from this software. […]

[2] = molecular target: T1, Piezo1 (Mus musculus, UniProt E2JF22); experiment: Calcium imaging (Cal590) in 293T cells overexpressing Piezo1; type: cell-based; design: EGFP; expressed in transfected cells; host or cells: 293T cells (ATCC), pcDNA3.1 Piezo1-EGFP plasmid provided by Dr. Ardem Patapoutian; conditions: Yodal; 293T cells overexpressing Piezo1 vs control cells
[3] = molecular target: T1, Piezo1; experiment: Western blot of p-CaMKII and p-CREB in CLU199 cells; type: cell-based; design: Expression of Piezo1 in CLU199 cells was confirmed through RT-PCR; host or cells: mHippoE-18 (CLU199) embryonic mouse hippocampal cell line
Experimental: To evaluate effects on cell signalling, the phosphorylated forms of the Calcium/calmodulin-dependent protein kinase type II (p-CaMKII), and the transcription factor CREB (p-CREB) (28), both crucial players in Ca2+ signalling were analysed.
0.3 MPa ultrasound was then used to treat CLU199 cells with or without Yodal, or the Piezo1 blocker GsMTx-4 [7].
SMARTpool ON-TARGETplus Piezo1 siRNA (L-061455-00-0005) and ON-TARGETplus Non-Targeting Pool (D-001810-10) siRNA were obtained from Dharmacon. Transfection complexes were prepared by incubating siRNA with Lipofectamine RNAiMAX (Invitrogen) in Opti-MEM for 5 minutes at room temperature. 300 μl of complexes added per 35 mm dish or collagen-coated coverslips (5 μg/cm2). 1.5×10^6 cells were added per dish in fully-supplemented DMEM such that the final siRNA concentration was 125 nM. Cells were incubated for 48 hours post-transfection, and then used for further experiments.
(§1) CLU199 cells or primary cortical neurons at DIV 10 were treated with ultrasound at acoustic pressures of 0.1, 0.3 or 0.5 MPa for 20 minutes with 20 s interval inside a humified incubator, 37° C., 5% CO2. The ultrasonic stimulation system and treatment parameters are the same as those described in section 4. Yodal (Tocris Bioscience) was used as a Piezo1 agonist with a concentration of 1 μM, while GsMTx-4 (Abcam) was used as a Piezo1 blocker at a concentration of 10 μM. Yodal was added to culture media, followed by a 20-minute incubation or immediate ultrasound treatment. GsMTx-4 was added to culture media, allowed for 30 minutes incubation, and followed by a further 20-minute incubation or ultrasound treatment.
Cells were lysed with RIPA buffer (EMD Millipore), supplemented with 1× Halt™ Protease and Phosphatase Inhibitor Cocktail (Thermo Fisher Scientific) on ice, centrifuged to clear the lysate, and protein concentrations measured using the Bio-Rad protein assay. 30 or 50 μg total protein per well was loaded on 10% SDS-PAGE gels, electrophoresed, and transferred to methanol-activated PVDF membranes. Membranes were blocked with 3% BSA in Tris-buffered-saline+0.05% Tween-20 (TBST). Membranes were incubated in primary antibody diluted in 5% BSA in TBST overnight, washed with TBST and incubated in secondary antibody solutions, diluted in blocking buffer, for 1 hour at room temperature. […]
Protein levels were quantified through image densitometry using ImageJ. Protein levels were expressed as a fold change compared to the untreated control, an average ±SEM of at least three independent experiments, except in FIG. 2E. Statistical significance was calculated using a two-tailed unpaired student's t-test and P values below 0.05 were considered significant.

[4] = molecular target: T1, Piezo1; experiment: Immunocytochemical staining of c-Fos, p-CaMKII and p-CREB in primary cortical neurons; type: cell-based; design: Expression of Piezo1 in CLU199 cells was confirmed through RT-PCR; host or cells: mHippoE-18 (CLU199) embryonic mouse hippocampal cell line; conditions: GsMTx-4 10 μM followed by 0.3 MPa ultrasound
Experimental: The expression of c-Fos, p-CaMKII and p-CREB was investigated by immunocytochemical staining in primary cortical neurons untreated, treated by ultrasound or treated with GsMTx-4 (10 μM) followed by ultrasound. Each stimulus contained 200 cycles, at 1 kHz RPF with 200 NTB of 500 kHz ultrasound at 0.3 MPa and the results are shown in FIG. 2I.
Primary cortical neurons from embryonic mice brains were harvested as described previously with slight modifications. Briefly, pregnant mice were sacrificed at E16.5-E17, and brains from the embryonic mice were collected. They were then dissected under a microscope to separate the cortex from the other brain mass. Cortical cells were dispersed and seeded into culture dishes or collagen-coated glass coverslips (4 μg/cm2). At DIV 10, the cells were used for further experiments.
as §1
CLU199 cells and primary neurons at DIV 10, including treated with (+) or without (−) ultrasound, were fixed using 4% paraformaldehyde+PBS and permeabilized using 0.1% Triton X-100+PBS. […] The number of c-Fos+ cells were determined by counting the number of DAPI and c-Fos signals co-located with DAPI from 10 FOVs photographed per condition. Results were expressed as a percentage of c-Fos versus DAPI signals, and were subjected to a one-way ANOVA followed by a post-hoc Tukey test. […]

[5] = Yodal 1 μM alone, vs untreated control
[6] = GsMTx-4 10 μM incubation before 0.3 MPa ultrasound

T1 sequence (E2JF22 whole entry): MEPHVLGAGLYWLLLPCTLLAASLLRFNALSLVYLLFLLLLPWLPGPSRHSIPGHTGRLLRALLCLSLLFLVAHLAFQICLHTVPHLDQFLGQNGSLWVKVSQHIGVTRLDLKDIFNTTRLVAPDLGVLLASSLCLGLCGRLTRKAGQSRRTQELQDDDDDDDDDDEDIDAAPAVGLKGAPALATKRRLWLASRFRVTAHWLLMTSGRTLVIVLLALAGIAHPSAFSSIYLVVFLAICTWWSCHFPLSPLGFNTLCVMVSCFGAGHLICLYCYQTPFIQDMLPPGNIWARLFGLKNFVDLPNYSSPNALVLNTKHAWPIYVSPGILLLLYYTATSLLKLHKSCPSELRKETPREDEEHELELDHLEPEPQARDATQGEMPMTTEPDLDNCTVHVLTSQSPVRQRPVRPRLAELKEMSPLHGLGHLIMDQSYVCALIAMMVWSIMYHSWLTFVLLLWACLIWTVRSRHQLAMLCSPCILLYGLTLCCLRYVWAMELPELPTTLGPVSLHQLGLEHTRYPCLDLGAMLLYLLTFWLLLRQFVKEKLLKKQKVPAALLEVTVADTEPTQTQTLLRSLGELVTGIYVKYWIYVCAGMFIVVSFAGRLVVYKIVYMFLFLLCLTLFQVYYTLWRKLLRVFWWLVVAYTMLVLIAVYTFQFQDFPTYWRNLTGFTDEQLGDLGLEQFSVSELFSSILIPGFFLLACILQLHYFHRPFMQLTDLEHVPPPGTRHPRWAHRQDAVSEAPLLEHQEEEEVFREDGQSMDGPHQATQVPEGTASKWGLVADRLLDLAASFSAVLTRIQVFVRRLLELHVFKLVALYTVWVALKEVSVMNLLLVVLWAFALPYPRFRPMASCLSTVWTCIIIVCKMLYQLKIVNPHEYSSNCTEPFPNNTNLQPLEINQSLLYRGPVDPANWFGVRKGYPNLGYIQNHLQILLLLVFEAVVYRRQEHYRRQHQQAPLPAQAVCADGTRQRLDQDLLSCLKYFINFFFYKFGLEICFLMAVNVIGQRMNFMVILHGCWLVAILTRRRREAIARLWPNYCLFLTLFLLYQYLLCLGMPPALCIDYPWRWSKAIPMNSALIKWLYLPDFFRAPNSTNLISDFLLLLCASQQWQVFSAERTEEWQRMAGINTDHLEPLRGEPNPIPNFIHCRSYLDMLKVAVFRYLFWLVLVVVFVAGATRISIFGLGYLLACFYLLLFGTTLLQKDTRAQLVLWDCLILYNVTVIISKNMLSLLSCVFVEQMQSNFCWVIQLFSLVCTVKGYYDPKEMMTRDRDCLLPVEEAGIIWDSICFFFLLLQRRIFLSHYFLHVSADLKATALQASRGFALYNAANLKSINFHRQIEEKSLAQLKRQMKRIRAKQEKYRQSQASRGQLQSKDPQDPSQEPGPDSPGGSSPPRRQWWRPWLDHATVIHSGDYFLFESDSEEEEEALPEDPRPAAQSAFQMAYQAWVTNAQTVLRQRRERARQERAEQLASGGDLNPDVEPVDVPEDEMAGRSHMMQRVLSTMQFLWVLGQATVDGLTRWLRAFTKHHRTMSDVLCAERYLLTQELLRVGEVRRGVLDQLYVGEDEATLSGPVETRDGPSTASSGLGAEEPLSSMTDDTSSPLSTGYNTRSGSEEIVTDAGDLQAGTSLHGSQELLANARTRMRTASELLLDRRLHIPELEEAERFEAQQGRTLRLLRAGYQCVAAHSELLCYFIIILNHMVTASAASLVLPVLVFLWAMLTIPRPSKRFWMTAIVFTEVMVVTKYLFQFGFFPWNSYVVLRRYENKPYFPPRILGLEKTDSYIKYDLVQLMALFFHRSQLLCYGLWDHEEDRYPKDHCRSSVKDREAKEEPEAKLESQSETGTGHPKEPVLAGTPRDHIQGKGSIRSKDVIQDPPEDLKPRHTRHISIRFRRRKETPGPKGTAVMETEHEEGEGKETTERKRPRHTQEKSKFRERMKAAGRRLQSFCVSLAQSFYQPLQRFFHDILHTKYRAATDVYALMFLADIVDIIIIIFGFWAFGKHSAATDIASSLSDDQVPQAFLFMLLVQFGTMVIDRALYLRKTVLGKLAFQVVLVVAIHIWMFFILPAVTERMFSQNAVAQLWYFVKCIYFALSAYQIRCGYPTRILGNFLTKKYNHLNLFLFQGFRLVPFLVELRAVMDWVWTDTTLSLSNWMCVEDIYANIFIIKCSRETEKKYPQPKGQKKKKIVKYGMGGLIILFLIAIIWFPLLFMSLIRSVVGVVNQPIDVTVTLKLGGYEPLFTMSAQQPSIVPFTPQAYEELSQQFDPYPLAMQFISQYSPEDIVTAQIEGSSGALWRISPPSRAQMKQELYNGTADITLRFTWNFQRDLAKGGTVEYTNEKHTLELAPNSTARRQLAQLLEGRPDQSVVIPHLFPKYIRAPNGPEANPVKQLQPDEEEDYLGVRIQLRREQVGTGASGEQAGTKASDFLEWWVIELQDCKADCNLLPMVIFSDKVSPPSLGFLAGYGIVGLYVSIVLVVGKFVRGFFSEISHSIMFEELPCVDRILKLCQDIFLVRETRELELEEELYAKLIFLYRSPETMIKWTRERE

| p-CREB level [3, 5] | p-CaMKII level [3, 5] | Compound | number of genes co-downregulated by ultrasound and Yodal [1] | number of genes co-upregulated by ultrasound and Yodal [1] | calcium influx [2] | p-CREB level after ultrasound [3, 6] | p-CaMKII level after ultrasound [3, 6] | level of p-CREB [4] | level of p-CaMKII [4] | ultrasound-induced c-Fos expression in the nuclei [4] |
| --- | --- | --- | --- | --- | --- | --- | --- | --- | --- | --- |
| increased; also recorded: upregulate | increased; also recorded: upregulate | Clc1cccc(Cl)c1CSc1nnc(-c2cnccn2)s1 [Yodal] | 23 | 43 | Significant Ca2+ increase; also recorded: significantly higher calcium influx |  |  |  |  |  |
|  |  | GsMTx-4: Piezo1-specific blocker (Abcam), used at 10 μM (GCLEFWWKCNPNDDKCCRPKLKCSKLFKLCNFSF-NH2; disulfide 16-30, 2-17, 9-23; ends not checked) |  |  |  | reduced to levels comparable to those in the untreated control; also recorded: inhibits this effect | reduced to levels comparable to those in the untreated control; also recorded: inhibits this effect | affected | affected | inhibited this effect |
